# Assay results reported in publication PMC3665789 (PLoS ONE, 2013).
# Like-named read-outs stand apart in the source and are kept apart here.
# How the values were obtained:
# [1] = tested on: HIV-1 NL4.3; assay: Pre-incubation of MT-4 cells with compound, wash, then HIV-1 NL4.3 infection; type: cell-based; details: MT-4 cells pre-incubated 2 h at 37°C, washed, infected with HIV-1 NL4.3; 5 days; control 100% CPE
# [2] = tested on: HSV-2 wild-type G (reference strain); assay: microbe, parasite or virus in culture; details: Human alphaherpesvirus 2, HEL
# [3] = tested on: HSV-2 strain G; assay: Time-of-drug-addition study, HSV-2; type: cell-based; details: HEL cells; LabyA1 19 µM, ACV 35 µM; after 3 days
# Experimental: TOA experiments for HSV-2 were performed identically as the viral replication assays, but each compound separately (LabyA1 or ACV) was added together with the virus (0 h) or after 2 h post-infection. The reference compound was added at least 100 times its EC50-value, as obtained in the HEL cell line (Table 3).
# [4] = tested on: HSV-1 wild-type KOS (reference strain); assay: microbe, parasite or virus in culture; details: Human alphaherpesvirus 1, HEL
# [5] = tested on: HSV-2 wild-type RV-24 (clinical isolate); assay: microbe, parasite or virus in culture; details: Human alphaherpesvirus 2, HEL
# [6] = tested on: HSV-2 wild-type RV-124 (clinical isolate); assay: microbe, parasite or virus in culture; details: Human alphaherpesvirus 2, HEL
# [7] = tested on: HSV-1 TK^-; assay: microbe, parasite or virus in culture; details: Human alphaherpesvirus 1, HEL, read-out: Median EC50
# [8] = tested on: HSV-2 TK^-; assay: Anti-HSV CPE assay in HEL, summary; type: cell-based; details: Human alphaherpesvirus 2, HEL, read-out: Median EC50
# [9] = tested on: HSV-1 wild-type C559142 (clinical isolate); assay: microbe, parasite or virus in culture; details: Human alphaherpesvirus 1, HEL
# [10] = tested on: HSV-1 wild-type RV-175 (clinical isolate); assay: microbe, parasite or virus in culture; details: Human alphaherpesvirus 1, HEL
# [11] = tested on: HSV-2 wild-type; assay: microbe, parasite or virus in culture; details: Human alphaherpesvirus 2, HEL, read-out: Median EC50
# [12] = tested on: HSV-1 wild-type RV-174 (clinical isolate); assay: microbe, parasite or virus in culture; details: Human alphaherpesvirus 1, HEL
# [13] = tested on: HSV-1 wild-type; assay: microbe, parasite or virus in culture; details: Human alphaherpesvirus 1, HEL, read-out: Median EC50
# [14] = tested on: HIV-1 IIIB; assay: Time-of-drug-addition study, HIV; type: cell-based; details: MT-4 cells; for time of addition after infection at which antiviral activity is completely lost: p24 Ag ELISA after 31 h, 421 µM dextran sulfate 8000, 6 µM AMD3100
# Experimental: The time-of-drug-addition (TOA) experiments were performed as described. In brief, 1×10^6 MT-4 cells/ml were infected with HIV-1 X4 IIIB at a multiplicity of infection (MOI) of 0.5. The compounds were added at different time points in a range from 0 to 26 h post-infection. After 31 h, HIV-1 replication was detected by p24 HIV-1 Ag ELISA as described above. The reference compounds were added at 100 times their EC50-values, as obtained in the MT-4 cell antiviral assay.
# [15] = tested on: HSV-1 TK^- RV-294 (clinical isolate); assay: microbe, parasite or virus in culture; details: Human alphaherpesvirus 1, HEL
# [16] = tested on: HSV-1 TK^- RV-179 (clinical isolate); assay: microbe, parasite or virus in culture; details: Human alphaherpesvirus 1, HEL
# [17] = tested on: HSV-2 TK^- RV-129 (clinical isolate); assay: microbe, parasite or virus in culture; type: cell-based; details: Human alphaherpesvirus 2, HEL
# [18] = tested on: HSV-1 TK^- RV-117 (clinical isolate); assay: microbe, parasite or virus in culture; details: Human alphaherpesvirus 1, HEL
# [19] = tested on: HSV-2 TK^- BA19026589 (clinical isolate); assay: microbe, parasite or virus in culture; details: Human alphaherpesvirus 2, HEL
# [20] = tested on: HIV-1 R5 BaL in PBMCs; assay: Susceptibility of pre-treated PBMCs for HIV-1 infection; details: washed, HIV-1 BaL, day 7
# Experimental: The next day, cells were collected, extensively washed in culture medium, resuspended (5×10^5 cells/450 µl) and seeded in a 48-well plate. Immediately afterwards, 50 µl of HIV-1 R5 strain BaL (500 pg/well) was added and cells were cultures for 7 days. Supernatant was collected 7 days post virus infection and viral replication was determined by p24 HIV-1 Ag ELISA.
# [21] = tested on: PBMCs; assay: Activation markers CD25 and CD69 on PBMCs (flow cytometry); type: cell-based; details: 3 days, LabyA1 9.6 µM, PHA 0.016 µM
# Experimental: The effects of 9.6 µM LabyA1 and 0.016 µM PHA on the expression levels of the cellular activation markers CD25 and CD69 on PBMCs was measured after 3 days of incubation at 37°C. After washing with PBS/FCS2%, cells were incubated with anti-CD4 conjugated with PerCP (BD Biosciences) and co-stained with the PE-conjugated mAbs anti-CD25 or anti-CD69 (both BD Biosciences) for 30 min at 4°C. For aspecific background staining, cells were incubated with SimulTest™ Control (IgGγ1-FITC/IgGγ2a-PE). After washing, and fixation with 1% formaldehyde solution, samples were analyzed using the FACSCalibur and CellQuest software (BD Biosciences).
# [22] = tested on: HIV-1 NL4.3 binding to CD4+ SupT1 cells; type: cell-based; details: LabyA1 9.6 µM, sCD4 10 µg/ml, AMD3100 12 µM; no compound MFI 9.8, background 3.9
# [23] = tested on: HIV; parameters: method as in PMID 15613479, PMID 17669213; details: cited from earlier work
# [24] = tested on: herpes virus; assay: Anti-herpes virus activity of griffithsin in vitro; type: cell-based
compound,measurement,setting,value
enfuvirtide [T20],% CPE after pre-incubation of cells and removal of compound,[1],72.6±13.4 % CPE
"Nc1nc2c(ncn2COCCO)c(=O)[nH]1 [Acyclovir, acyclovir]",EC50,[2],270 ± 10 nM
same,"HSV-2 induced CPE, compound given simultaneously with virus (0 h)",[3],no CPE or viral replication were observed
same,"antiviral activity, compound added after 2 h adsorption period",[3],still active
same,EC50,[4],180 ± 90 nM
same,EC50,[5],130 ± 90 nM
same,EC50,[6],400 ± 60 nM
same,EC50,[7],> 79000 nM
same,EC50,[8],52000 nM
same,EC50,[9],90 ± 20 nM
same,EC50,[10],180 ± 30 nM
same,EC50,[11],270 nM
same,EC50,[12],310 ± 20 nM
same,EC50,[13],180 nM
Cc1ccnc2c1NC(=O)c1cccnc1N2C1CC1 [nevirapine],time of addition post-infection up to which full activity is kept,[14]; 7.5 µM nevirapine,4 h
"Nc1ccn(C[C@@H](CO)OCP(=O)(O)O)c(=O)n1 [Cidofovir, cidofovir]",EC50,[2],600 ± 100 nM
same,EC50,[15],300 ± 20 nM
same,EC50,[4],480 ± 110 nM
same,EC50,[16],390 ± 120 nM
same,EC50,[5],1100 ± 300 nM
same,EC50,[6],1300 ± 300 nM
same,EC50,[17],550 ± 200 nM
same,EC50,[7],390 nM
same,EC50,[8],750 nM
same,EC50,[18],500 ± 120 nM
same,EC50,[19],950 ± 240 nM
same,EC50,[9],530 ± 90 nM
same,EC50,[10],1100 ± 100 nM
same,EC50,[11],1100 nM
same,EC50,[12],1300 ± 100 nM
same,EC50,[13],820 nM
dextran sulfate 8000,time of addition after infection at which antiviral activity is completely lost,[14],1 h
"phytohemagglutinin [PHA, reference compound]",p24 HIV-1 Ag production after pre-treatment,[20]; PBMCs pre-treated 24 h with 0.016 µM,125.08 ± 37.81 ng/mL
same,p24 HIV-1 Ag production after pre-treatment,[20]; PBMCs pre-treated 24 h with 0.078 µM,169.54 ± 35.22 ng/mL
same,percentage of CD4+CD69+ cells,[21]; untreated 1.4±0.8%,30.9±5.5%
same,percentage of CD4+CD25+ cells,[21]; untreated 10.7±3.2%,37.2±6.6%
c1cc(CN2CCCNCCNCCCNCC2)ccc1CN1CCCNCCNCCCNCC1 [AMD3100],"virus binding, mean fluorescence intensity (MFI) of anti-gp120 (9205) mAb",[22],9.5
same,% CPE after pre-incubation of cells and removal of compound,[1],13.5±5.5 % CPE
same,time of addition after infection at which antiviral activity is completely lost,[14],2 h
C[C@H](Cn1cnc2c(N)ncnc21)OCP(=O)(O)O [tenofovir],EC50,[2]; read-out: EC50 against HSV-2,> 200000 nM
Griffithsin,anti-HIV activity,[23],pM range
same,anti-herpes virus activity in vitro,[24],lacks anti-herpes virus activity in vitro
